“Also recorded” adds a separate entry of the source. Like-named read-outs stand apart in the source and are kept apart here.
Experiments:
CYP168A1 [1] = target: T1, CYP168A1 (Pseudomonas aeruginosa, UniProt Q9I107); details: 19-HETE formation; substrate inhibition model
T1 sequence (Q9I107 1-444): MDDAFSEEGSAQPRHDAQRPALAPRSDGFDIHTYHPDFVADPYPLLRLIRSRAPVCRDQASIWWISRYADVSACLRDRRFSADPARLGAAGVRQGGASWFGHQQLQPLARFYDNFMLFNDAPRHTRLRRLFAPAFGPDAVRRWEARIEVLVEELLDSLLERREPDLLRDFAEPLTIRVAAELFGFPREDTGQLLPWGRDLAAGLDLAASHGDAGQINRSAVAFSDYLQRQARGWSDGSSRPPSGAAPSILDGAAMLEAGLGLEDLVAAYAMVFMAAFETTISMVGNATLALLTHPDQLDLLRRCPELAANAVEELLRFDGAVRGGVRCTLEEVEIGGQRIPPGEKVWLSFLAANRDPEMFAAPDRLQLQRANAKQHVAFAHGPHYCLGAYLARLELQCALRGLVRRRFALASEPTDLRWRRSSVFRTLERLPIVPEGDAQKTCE

CYP168A1 [2] = target: T1, CYP168A1; assay: biochemical; details: Ki ± SE, substrate inhibition constant
P. aeruginosa = details: exposure of P. aeruginosa to arachidonic acid; cited from earlier work
CYP168A1 [3] = target: T1, CYP168A1; assay: Ligand Kd determination by optical difference spectroscopy; assay type: binding; details: for Δ absorbance maxima: 1 μM CYP168A1
CYP168A1 [4] = target: T1, CYP168A1; assay: Recombinant CYP168A1 lauric acid in vitro metabolic assays; assay type: biochemical
[5] = ND = no spectral shift detected
[6] = lauric acid ω-1-hydroxylation, Hill fit (preferred model)

With `CCCCC/C=C\C/C=C\C/C=C\C/C=C\CCCC(=O)O` [Arachidonic acid] the “Vmax ± SE” value (CYP168A1 [1]) was 220 pmol/min/nmol P450, the Ki (CYP168A1 [2]; 18-HETE formation) was 16 ± 8 µM and the Ki (CYP168A1 [2]; 19-HETE formation) was 13 ± 8 µM. The “increase in the minimum inhibitory concentration (MIC) for polymyxin B” value (P. aeruginosa) was “eightfold increase”, the Kd (CYP168A1 [3]) was 0.96 ± 0.07 µM and the Δ absorbance maxima (CYP168A1 [3]; [5]) was 0.058 AU.
Compound `Clc1ccccc1C(c1ccccc1)(c1ccccc1)n1ccnc1` [Clotrimazole] has a Kd (CYP168A1 [3]) of 3 ± 0.4 µM and a Δ absorbance maxima (CYP168A1 [3]; [5]) of 0.053 AU.
For `CCCCCCCCCC(=O)O` [Decanoic acid], the Kd (CYP168A1 [3]) was 21 ± 4 µM and the Δ absorbance maxima (CYP168A1 [3]; [5]) was 0.016 AU.
For `Clc1ccc(COC(Cn2ccnc2)c2ccc(Cl)cc2Cl)cc1` (stereo not shown) [Econazole], the Kd (CYP168A1 [3]) was 2.5 ± 0.4 µM and the Δ absorbance maxima (CYP168A1 [3]; [5]) was 0.026 AU.
In the case of `CCCCCCCCCCCC(=O)O` [Lauric acid], the “proportion of lauric acid metabolized to the ω-hydroxyl derivative” value (CYP168A1 [4]; LC-MS analysis, spinach redox partners and NADPH) is reported as under 5%, the “n, cooperativity value for the substrate binding” value (CYP168A1 [4]; lauric acid ω-1-hydroxylation, Hill fit) is reported as 1.5 and the “S50 ± SE” value (CYP168A1 [4]; [6]) is reported as 34 ± 2 µM. For the same compound, the “Vmax ± SE” value (CYP168A1 [4]; [6]) was 0.12 ± 0.004 nmol/min/nmol P450, the “Vmax ± SE” value (CYP168A1 [4]; lauric acid ω-1-hydroxylation, Michaelis-Menten fit) was 0.14 ± 0.006 nmol/min/nmol P450 and the Km (CYP168A1 [4]; read-out: Km ± SE, lauric acid ω-1-hydroxylation to 11-hydroxylauric acid, Michaelis-Menten fit) was 46 ± 5 µM. For the same compound, the Δ absorbance maxima (CYP168A1 [3]; [5]) was 0.013 AU and the Kd (CYP168A1 [3]; read-out: Kd ± SE, 1 μM CYP168A1, 100 mM potassium phosphate pH 7.4, one binding site model, ND = no spectral shift detected) was 1.9 ± 0.3 µM.
Compound `Clc1ccc(COC(Cn2ccnc2)c2ccc(Cl)cc2Cl)c(Cl)c1` (stereo not shown) [Miconazole] has a Kd (CYP168A1 [3]) of 0.88 ± 0.18 µM and a Δ absorbance maxima (CYP168A1 [3]; [5]) of 0.036 AU.
`CCCCCCCCCCCCCC(=O)O` [Myristic acid] showed a Kd (CYP168A1 [3]) of 0.83 ± 0.15 µM and a Δ absorbance maxima (CYP168A1 [3]; [5]) of 0.048 AU.
With `CCCCCCCC/C=C\CCCCCCCC(=O)O` [Oleic acid] the Kd (CYP168A1 [3]) was 0.37 ± 0.07 µM and the Δ absorbance maxima (CYP168A1 [3]; [5]) was 0.099 AU.
With `CCCCCCCCCCCCCCCC(=O)O` [Palmitic acid] the Kd (CYP168A1 [3]) was 0.21 ± 0.04 µM and the Δ absorbance maxima (CYP168A1 [3]; [5]) was 0.064 AU.
With `CCCCCCCCCCCCCCCCCC(=O)O` [Stearic acid] the Kd (CYP168A1 [3]) was 0.33 ± 0.07 µM and the Δ absorbance maxima (CYP168A1 [3]; [5]) was 0.078 AU.
With `CC(C)CCC[C@@H](C)[C@H]1CC[C@H]2[C@@H]3CC=C4C[C@@H](O)CC[C@]4(C)[C@H]3CC[C@]12C` [cholesterol] the “Spectral shift of the Soret band (difference spectrum type)” value (CYP168A1 [3]; UV-visible titration of CYP168A1) was “no spectral changes; also recorded: did not exert any changes”.
